Measurements: article PMC11637191, “The pH-dependence of efflux ratios determined with bidirectional transport assays across cellular monolayers” (International Journal of Pharmaceutics: X, 2024)

Experiments:
MDCK-II-MDR1 cells = conditions: intrinsic membrane permeability, calculated from Papp, A⟶B with elacridar
Procedure: Briefly, cells (passage 20–40) were seeded onto 12-well PET inserts (CellQART, Northeim, Germany; pore size: 0.4 μm; filter thickness: 11.5 μm, 100×10^6 pores/cm^2) at a density of 1.5×10^5 cells/insert. […] One day before the experiments, the cell medium was refreshed. For P0 determination, inserts were pre-incubated with the P-gp inhibitor elacridar (2 μM) for 30 min in HBSS pH 7.4. The transport rates in both directions of the test compounds were determined in duplicate or triplicate for 4–5 different pH values between pH 5 and pH 9. The transport buffer was HBSS buffered with 10 mM MES for pH 5 and 6, 25 mM HEPES for pH 7, 7.4 and 8, and 10 mM TAPS for pH 9. Stock solutions were prepared in the transport buffer and pre-warmed to 37 °C. Additional stock solutions with 2 μM elacridar were prepared at suitable pH values to measure P0 values in tandem. The pH of all buffer and stock solutions, as well as the pH of all samples after experiment completion, was controlled with a rapid pH automated pH meter (Hudson Robotics, Inc., Springfield, NJ, USA). Inserts were used in 12-well plates (TPP Techno Plastic Products AG, Trasadingen, Switzerland). […] Timestep length was determined individually for each compound and direction measured to ensure sink conditions. […]
to ensure that measured transport rates would not be affected by active efflux .

MDCK-MDR1 cells [1] = conditions: dog, MDCK-MDR1, pH 7.4
in vitro = conditions: dog
P-gp (MDR1) [2] = experiment: in vitro; conditions: dog
P-gp (MDR1) [3] = experiment: in vitro; conditions: dog, MDCK-MDR1, Papp, B⟶A
MDCK-MDR1 cells [4] = conditions: MDCK-MDR1, pH 7.4; cited from earlier work
[5] = Calculation of neutral fraction (fn); conditions: neutral fraction at pH 8
[6] = no reference given; cited from earlier work

**Q.** With `COc1cc2c(c(OC)c1OC)-c1ccc(OC)c(=O)cc1[C@@H](NC(C)=O)CC2` [Colchicine] as the compound, how does the LogP0 (MDCK-II-MDR1 cells) read?
**A.** Its LogP0 is -5.9 P in cm/s.

**Q.** And the Factor difference (MDCK-MDR1 cells [1])?
**A.** Its Factor difference is 7.

**Q.** What about the recovery (in vitro; MDCK-MDR1, pH 5) of the same compound?
**A.** Its recovery is 100 to 120%.

**Q.** What about the recovery (in vitro; MDCK-MDR1, pH 6) of the same compound?
**A.** Its recovery is 78 to 109%.

**Q.** What about the recovery (in vitro; MDCK-MDR1, pH 7) of the same compound?
**A.** The recovery was 98 to 110%.

**Q.** What about the recovery (in vitro; MDCK-MDR1, pH 8) of the same compound?
**A.** Its recovery is 96 to 102%.

**Q.** And the recovery (in vitro; MDCK-MDR1, pH 9)?
**A.** Its recovery is 92 to 100%.

**Q.** And the Papp (P-gp (MDR1) [2]; MDCK-MDR1, pH 5)?
**A.** The Papp was 0.52 ± 0.15 ×10⁻⁶ cm/s.

**Q.** And the Papp B→A (P-gp (MDR1) [2]; MDCK-MDR1, pH 5)?
**A.** The Papp B→A was 2.12 ± 0.14 ×10⁻⁶ cm/s.

**Q.** And the Papp (P-gp (MDR1) [2]; MDCK-MDR1, pH 6)?
**A.** Its Papp is 0.2 ± 0.04 ×10⁻⁶ cm/s.

**Q.** And the Papp B→A (P-gp (MDR1) [2]; MDCK-MDR1, pH 6)?
**A.** Its Papp B→A is 4.42 ± 0.33 ×10⁻⁶ cm/s.

**Q.** And the Papp (P-gp (MDR1) [2]; MDCK-MDR1, pH 7)?
**A.** Its Papp is 0.16 ± 0.04 ×10⁻⁶ cm/s.

**Q.** What about the Papp B→A (P-gp (MDR1) [2]; MDCK-MDR1, pH 7) of the same compound?
**A.** Its Papp B→A is 5.03 ± 0.58 ×10⁻⁶ cm/s.

**Q.** And the Papp (P-gp (MDR1) [2]; MDCK-MDR1, pH 8)?
**A.** The Papp was 0.2 ± 0.05 ×10⁻⁶ cm/s.

**Q.** What about the Papp B→A (P-gp (MDR1) [2]; MDCK-MDR1, pH 8) of the same compound?
**A.** The Papp B→A was 6.33 ± 0.62 ×10⁻⁶ cm/s.

**Q.** And the Papp (P-gp (MDR1) [2]; MDCK-MDR1, pH 9)?
**A.** The Papp was 0.41 ± 0.06 ×10⁻⁶ cm/s.

**Q.** And the Papp B→A (P-gp (MDR1) [2]; MDCK-MDR1, pH 9)?
**A.** Its Papp B→A is 5.89 ± 1.14 ×10⁻⁶ cm/s.

**Q.** What about the Papp (P-gp (MDR1) [3]) of the same compound?
**A.** The Papp was 6.33 ×10⁻⁶ cm/s.

**Q.** What about the “Papp, B⟶A” value (MDCK-MDR1 cells [4]) of the same compound?
**A.** Its value is 11.9 ×10⁻⁶ cm/s.

**Q.** What about the “Papp, inhibitor” value (MDCK-MDR1 cells [4]) of the same compound?
**A.** The value was 1.64 ×10⁻⁶ cm/s.

**Q.** What about the fn [5] of the same compound?
**A.** The fn was 100%.

**Q.** For `COc1ccc2c(c1)c(CC(=O)O)c(C)n2C(=O)c1ccc(Cl)cc1` [Indomethacin], which logKhex/water [6] is on record?
**A.** Its logKhex/water is 0.58.
